# Experimental data taken from patent publication US9708314B2, “Heterocyclic amide compound” (NISSAN CHEMICAL INDUSTRIES, LTD., priority 2013, dated 2017).
# Experiments:
# Format in all cases: in vivo
# [1] = tested on: directly sowed Oryza sativa; assay: Test Example 3: effect on crop by application to foliage (Wagner pot, water depth 0.1-0.5 cm); conditions: Nineteenth Table; application to foliage; application herbicide amount 320 g/ha
# Outline: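 Alluvial soil in 1/10000 are Wagner pots, sown and grown 14 days in a 25–30 °C greenhouse. An emulsifiable concentrate diluted in water to the set dose (g/ha) was sprayed on stems and leaves. Effect scored three weeks later on a 0–5 scale: 5 = ≥90% herbicidal ratio, 0 = ≤5%.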
# Amaranthus retroflexus = assay: Test Example 4: herbicidal effect by application to foliage (diluvial soil, plastic box); conditions: for N (Amaranthus retroflexus) herbicidal effect grade: Application herbicide amount 320 g/ha, foliage application; for N: herbicidal effect on Amaranthus retroflexus: application to foliage, application herbicide amount 320 g/ha
# Outline: (§1)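 Seeds sown in sterilized diluvial soil, covered ~1.5 cm, grown 14 days in greenhouse at 25° C. to 30° C. Emulsion formulation diluted in water to set rate (g/ha) and sprayed onto stems and leaves. Effect scored visually 3 weeks later on 0–5 scale (5 = ≥90% herbicidal ratio, 0 = ≤5%).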
# Abutilon theophrasti = assay: as above; conditions: for M (Abutilon theophrasti) herbicidal effect grade: Application herbicide amount 320 g/ha, foliage application; for M: herbicidal effect on Abutilon theophrasti: application to foliage, application herbicide amount 320 g/ha
# Outline: as §1
# Alopecurus myosuroides = assay: as above; conditions: for J (Alopecurus myosuroides) herbicidal effect grade: Application herbicide amount 320 g/ha, foliage application; for J: herbicidal effect on Alopecurus myosuroides: application to foliage, application herbicide amount 320 g/ha
# Outline: as §1
# Galium spurium = assay: as above; conditions: for Q (Galium spurium) herbicidal effect grade: Application herbicide amount 320 g/ha, foliage application; for Q: herbicidal effect on Galium spurium: application to foliage, application herbicide amount 320 g/ha
# Outline: as §1
# Stellaria media = assay: as above; conditions: for P (Stellaria media) herbicidal effect grade: Application herbicide amount 320 g/ha, foliage application; for P: herbicidal effect on Stellaria media: application to foliage, application herbicide amount 320 g/ha
# Outline: as §1
# Setaria viridis = assay: as above; conditions: for G (Setaria viridis) herbicidal effect grade: Application herbicide amount 320 g/ha, foliage application; for G: herbicidal effect on Setaria viridis: application to foliage, application herbicide amount 320 g/ha
# Outline: as §1
# Lolium multiflorum Lam. = assay: as above; conditions: for K (Lolium multiflorum Lam.) herbicidal effect grade: Application herbicide amount 320 g/ha, foliage application; for K: herbicidal effect on Lolium multiflorum Lam.: application to foliage, application herbicide amount 320 g/ha
# Outline: as §1
# Avena fatua = assay: as above; conditions: for I (Avena fatua) herbicidal effect grade: Application herbicide amount 320 g/ha, foliage application; for I: herbicidal effect on Avena fatua: application to foliage, application herbicide amount 320 g/ha
# Outline: as §1
# Veronica persica = assay: as above; conditions: for R (Veronica persica) herbicidal effect grade: Application herbicide amount 320 g/ha, foliage application; for R: herbicidal effect on Veronica persica: application to foliage, application herbicide amount 320 g/ha
# Outline: as §1
# Digitaria ciliaris = assay: as above; conditions: for F (Digitaria ciliaris) herbicidal effect grade: Application herbicide amount 320 g/ha, foliage application; for F: herbicidal effect on Digitaria ciliaris: application to foliage, application herbicide amount 320 g/ha
# Outline: as §1
# Apera spica-venti. = assay: as above; conditions: for L (Apera spica-venti.) herbicidal effect grade: Application herbicide amount 320 g/ha, foliage application; for L: herbicidal effect on Apera spica-venti.: application to foliage, application herbicide amount 320 g/ha
# Outline: as §1
# Chenopodium album = assay: as above; conditions: for O (Chenopodium album) herbicidal effect grade: Application herbicide amount 320 g/ha, foliage application; for O: herbicidal effect on Chenopodium album: application to foliage, application herbicide amount 320 g/ha
# Outline: as §1
# [2] = tested on: Echinochloa crus-galli var. crus-galli; assay: as above; conditions: for H (Echinochloa crus-galli var. crus-galli) herbicidal effect grade: Application herbicide amount 320 g/ha, foliage application; for H: herbicidal effect on Echinochloa crus-galli var. crus-galli: application to foliage, application herbicide amount 320 g/ha
# Outline: as §1
compound,measurement,setting,value
CC(=O)CSc1nnc2c(C(=O)Nc3nnc(C)o3)ccc(C(F)(F)F)n12 [1-125],b (effect on crop grade),[1],1 (Herbicidal ratio of 5% or more and less than 20%)
same,N (Amaranthus retroflexus) herbicidal effect grade,Amaranthus retroflexus,3 (Herbicidal ratio of 40% or more and less than 70%)
same,M (Abutilon theophrasti) herbicidal effect grade,Abutilon theophrasti,3 (Herbicidal ratio of 40% or more and less than 70%)
same,J (Alopecurus myosuroides) herbicidal effect grade,Alopecurus myosuroides,0 (Herbicidal ratio of 5% or less (almost no effect))
same,Q (Galium spurium) herbicidal effect grade,Galium spurium,0 (Herbicidal ratio of 5% or less (almost no effect))
same,P (Stellaria media) herbicidal effect grade,Stellaria media,4 (Herbicidal ratio of 70% or more and less than 90%)
same,G (Setaria viridis) herbicidal effect grade,Setaria viridis,1 (Herbicidal ratio of 5% or more and less than 20%)
same,K (Lolium multiflorum Lam.) herbicidal effect grade,Lolium multiflorum Lam.,0 (Herbicidal ratio of 5% or less (almost no effect))
same,I (Avena fatua) herbicidal effect grade,Avena fatua,1 (Herbicidal ratio of 5% or more and less than 20%)
same,R (Veronica persica) herbicidal effect grade,Veronica persica,0 (Herbicidal ratio of 5% or less (almost no effect))
same,F (Digitaria ciliaris) herbicidal effect grade,Digitaria ciliaris,4 (Herbicidal ratio of 70% or more and less than 90%)
same,L (Apera spica-venti.) herbicidal effect grade,Apera spica-venti.,0 (Herbicidal ratio of 5% or less (almost no effect))
same,O (Chenopodium album) herbicidal effect grade,Chenopodium album,5 (Herbicidal ratio of 90% or more (almost completely withered))
same,H (Echinochloa crus-galli var. crus-galli) herbicidal effect grade,[2],4 (Herbicidal ratio of 70% or more and less than 90%)
CSCCNc1nnc2c(C(=O)Nc3nnc(C)o3)ccc(C(F)(F)F)n12 [1-130],b (effect on crop grade),[1],2 (Herbicidal ratio of 20% or more and less than 40%)
same,N (Amaranthus retroflexus) herbicidal effect grade,Amaranthus retroflexus,3 (Herbicidal ratio of 40% or more and less than 70%)
same,M (Abutilon theophrasti) herbicidal effect grade,Abutilon theophrasti,3 (Herbicidal ratio of 40% or more and less than 70%)
same,J (Alopecurus myosuroides) herbicidal effect grade,Alopecurus myosuroides,1 (Herbicidal ratio of 5% or more and less than 20%)
same,Q (Galium spurium) herbicidal effect grade,Galium spurium,4 (Herbicidal ratio of 70% or more and less than 90%)
same,P (Stellaria media) herbicidal effect grade,Stellaria media,3 (Herbicidal ratio of 40% or more and less than 70%)
same,G (Setaria viridis) herbicidal effect grade,Setaria viridis,4 (Herbicidal ratio of 70% or more and less than 90%)
same,K (Lolium multiflorum Lam.) herbicidal effect grade,Lolium multiflorum Lam.,1 (Herbicidal ratio of 5% or more and less than 20%)
same,I (Avena fatua) herbicidal effect grade,Avena fatua,1 (Herbicidal ratio of 5% or more and less than 20%)
same,R (Veronica persica) herbicidal effect grade,Veronica persica,3 (Herbicidal ratio of 40% or more and less than 70%)
same,F (Digitaria ciliaris) herbicidal effect grade,Digitaria ciliaris,4 (Herbicidal ratio of 70% or more and less than 90%)
same,L (Apera spica-venti.) herbicidal effect grade,Apera spica-venti.,1 (Herbicidal ratio of 5% or more and less than 20%)
same,O (Chenopodium album) herbicidal effect grade,Chenopodium album,5 (Herbicidal ratio of 90% or more (almost completely withered))
same,H (Echinochloa crus-galli var. crus-galli) herbicidal effect grade,[2],5 (Herbicidal ratio of 90% or more (almost completely withered))
Cn1nnnc1NC(=O)c1ccc(C(F)(F)F)n2c(C3CCOC3)nnc12 (stereo not drawn) [2-022],b (effect on crop grade),[1],5 (Herbicidal ratio of 90% or more (almost completely withered))
same,N: herbicidal effect on Amaranthus retroflexus,Amaranthus retroflexus,5 (Herbicidal ratio of 90% or more (almost completely withered))
same,M: herbicidal effect on Abutilon theophrasti,Abutilon theophrasti,5 (Herbicidal ratio of 90% or more (almost completely withered))
same,J: herbicidal effect on Alopecurus myosuroides,Alopecurus myosuroides,3 (Herbicidal ratio of 40% or more and less than 70%)
same,Q: herbicidal effect on Galium spurium,Galium spurium,4 (Herbicidal ratio of 70% or more and less than 90%)
same,P: herbicidal effect on Stellaria media,Stellaria media,5 (Herbicidal ratio of 90% or more (almost completely withered))
same,G: herbicidal effect on Setaria viridis,Setaria viridis,5 (Herbicidal ratio of 90% or more (almost completely withered))
same,K: herbicidal effect on Lolium multiflorum Lam.,Lolium multiflorum Lam.,3 (Herbicidal ratio of 40% or more and less than 70%)
same,I: herbicidal effect on Avena fatua,Avena fatua,4 (Herbicidal ratio of 70% or more and less than 90%)
same,R: herbicidal effect on Veronica persica,Veronica persica,5 (Herbicidal ratio of 90% or more (almost completely withered))
same,F: herbicidal effect on Digitaria ciliaris,Digitaria ciliaris,4 (Herbicidal ratio of 70% or more and less than 90%)
same,L: herbicidal effect on Apera spica-venti.,Apera spica-venti.,5 (Herbicidal ratio of 90% or more (almost completely withered))
same,O: herbicidal effect on Chenopodium album,Chenopodium album,5 (Herbicidal ratio of 90% or more (almost completely withered))
same,H: herbicidal effect on Echinochloa crus-galli var. crus-galli,[2],5 (Herbicidal ratio of 90% or more (almost completely withered))
Cn1nnnc1NC(=O)c1ccc(C(F)(F)F)n2c(C3CCCC3)nnc12 [2-021],b (effect on crop grade),[1],5 (Herbicidal ratio of 90% or more (almost completely withered))
same,N: herbicidal effect on Amaranthus retroflexus,Amaranthus retroflexus,5 (Herbicidal ratio of 90% or more (almost completely withered))
same,M: herbicidal effect on Abutilon theophrasti,Abutilon theophrasti,5 (Herbicidal ratio of 90% or more (almost completely withered))
same,J: herbicidal effect on Alopecurus myosuroides,Alopecurus myosuroides,3 (Herbicidal ratio of 40% or more and less than 70%)
same,Q: herbicidal effect on Galium spurium,Galium spurium,4 (Herbicidal ratio of 70% or more and less than 90%)
same,P: herbicidal effect on Stellaria media,Stellaria media,5 (Herbicidal ratio of 90% or more (almost completely withered))
same,G: herbicidal effect on Setaria viridis,Setaria viridis,5 (Herbicidal ratio of 90% or more (almost completely withered))
same,K: herbicidal effect on Lolium multiflorum Lam.,Lolium multiflorum Lam.,3 (Herbicidal ratio of 40% or more and less than 70%)
same,I: herbicidal effect on Avena fatua,Avena fatua,3 (Herbicidal ratio of 40% or more and less than 70%)
same,R: herbicidal effect on Veronica persica,Veronica persica,5 (Herbicidal ratio of 90% or more (almost completely withered))
same,F: herbicidal effect on Digitaria ciliaris,Digitaria ciliaris,5 (Herbicidal ratio of 90% or more (almost completely withered))
same,L: herbicidal effect on Apera spica-venti.,Apera spica-venti.,4 (Herbicidal ratio of 70% or more and less than 90%)
same,O: herbicidal effect on Chenopodium album,Chenopodium album,5 (Herbicidal ratio of 90% or more (almost completely withered))
same,H: herbicidal effect on Echinochloa crus-galli var. crus-galli,[2],5 (Herbicidal ratio of 90% or more (almost completely withered))
COCCNc1nnc2c(C(=O)Nc3nnc(C)o3)ccc(C(F)(F)F)n12 [1-109],b (effect on crop grade),[1],2 (Herbicidal ratio of 20% or more and less than 40%)
same,N (Amaranthus retroflexus) herbicidal effect grade,Amaranthus retroflexus,4 (Herbicidal ratio of 70% or more and less than 90%)
same,M (Abutilon theophrasti) herbicidal effect grade,Abutilon theophrasti,4 (Herbicidal ratio of 70% or more and less than 90%)
same,J (Alopecurus myosuroides) herbicidal effect grade,Alopecurus myosuroides,0 (Herbicidal ratio of 5% or less (almost no effect))
same,Q (Galium spurium) herbicidal effect grade,Galium spurium,2 (Herbicidal ratio of 20% or more and less than 40%)
same,P (Stellaria media) herbicidal effect grade,Stellaria media,4 (Herbicidal ratio of 70% or more and less than 90%)
same,G (Setaria viridis) herbicidal effect grade,Setaria viridis,3 (Herbicidal ratio of 40% or more and less than 70%)
same,K (Lolium multiflorum Lam.) herbicidal effect grade,Lolium multiflorum Lam.,0 (Herbicidal ratio of 5% or less (almost no effect))
same,I (Avena fatua) herbicidal effect grade,Avena fatua,1 (Herbicidal ratio of 5% or more and less than 20%)
same,R (Veronica persica) herbicidal effect grade,Veronica persica,4 (Herbicidal ratio of 70% or more and less than 90%)
same,F (Digitaria ciliaris) herbicidal effect grade,Digitaria ciliaris,4 (Herbicidal ratio of 70% or more and less than 90%)
same,L (Apera spica-venti.) herbicidal effect grade,Apera spica-venti.,0 (Herbicidal ratio of 5% or less (almost no effect))
same,O (Chenopodium album) herbicidal effect grade,Chenopodium album,5 (Herbicidal ratio of 90% or more (almost completely withered))
same,H (Echinochloa crus-galli var. crus-galli) herbicidal effect grade,[2],5 (Herbicidal ratio of 90% or more (almost completely withered))
CC(C)c1nnc2c(C(=O)Nc3nnc(C[S+](C)[O-])o3)ccc(C(F)(F)F)n12 (stereo not drawn) [1-143],b (effect on crop grade),[1],0 (Herbicidal ratio of 5% or less (almost no effect))
same,N (Amaranthus retroflexus) herbicidal effect grade,Amaranthus retroflexus,2 (Herbicidal ratio of 20% or more and less than 40%)
same,M (Abutilon theophrasti) herbicidal effect grade,Abutilon theophrasti,2 (Herbicidal ratio of 20% or more and less than 40%)
same,J (Alopecurus myosuroides) herbicidal effect grade,Alopecurus myosuroides,0 (Herbicidal ratio of 5% or less (almost no effect))
same,Q (Galium spurium) herbicidal effect grade,Galium spurium,2 (Herbicidal ratio of 20% or more and less than 40%)
same,P (Stellaria media) herbicidal effect grade,Stellaria media,3 (Herbicidal ratio of 40% or more and less than 70%)
same,G (Setaria viridis) herbicidal effect grade,Setaria viridis,0 (Herbicidal ratio of 5% or less (almost no effect))
same,K (Lolium multiflorum Lam.) herbicidal effect grade,Lolium multiflorum Lam.,0 (Herbicidal ratio of 5% or less (almost no effect))
same,I (Avena fatua) herbicidal effect grade,Avena fatua,0 (Herbicidal ratio of 5% or less (almost no effect))
same,R (Veronica persica) herbicidal effect grade,Veronica persica,3 (Herbicidal ratio of 40% or more and less than 70%)
same,F (Digitaria ciliaris) herbicidal effect grade,Digitaria ciliaris,2 (Herbicidal ratio of 20% or more and less than 40%)
same,L (Apera spica-venti.) herbicidal effect grade,Apera spica-venti.,0 (Herbicidal ratio of 5% or less (almost no effect))
same,O (Chenopodium album) herbicidal effect grade,Chenopodium album,4 (Herbicidal ratio of 70% or more and less than 90%)
same,H (Echinochloa crus-galli var. crus-galli) herbicidal effect grade,[2],4 (Herbicidal ratio of 70% or more and less than 90%)
